Assay results as given in patent US8354419B2, “Benzimidazole analogues for the treatment or prevention of flavivirus infections” (Vertex Pharmaceuticals Incorporated, priority 2009, dated 2013).
Like-named read-outs stand apart in the source and are kept apart here.

System: HCV (Ib) RNA replication
Assay: Cell-based luciferase reporter HCV (1b) RNA replication assay (replicon cell lines Huh-7 5.2 and ET)
Set-up: species or system Hepatitis C virus
Conditions: HCV 1b genotype replicon, luciferase readout, 4 days incubation, read-out: EC50_1b
In short: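 Compounds were tested at eleven concentrations in duplicate over 4 days at 37 °C, 5% CO2. The cells were luciferase-reporter HCV 1b replicon lines 5.2 (NS5A adaptive mutation) or ET (NS4B mutation). Luminescence of lysates was measured, and IC50s were derived by nonlinear curve fitting.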

Compound | EC50 (Hepatitis C virus, Huh-7, 96 h) | EC50
CCc1cc(-c2ccc3[nH]c([C@@H]4CCCN4C(=O)[C@@H](NC(=O)OC)C(C)C)nc3c2)ccc1-c1ccc2[nH]c([C@@H]3CCCN3C(=O)[C@@H](NC(=O)OC)C(C)C)nc2c1 [Compound 213] | ≤ 5 nM | –
COC(=O)N[C@H](C(=O)N1CCC[C@H]1c1nc2cc(-c3nc(C)c(-c4ccc5[nH]c([C@@H]6CCCN6C(=O)[C@@H](NC(=O)OC)C(C)C)nc5c4)s3)ccc2[nH]1)C(C)C [Compound 214] | ≤ 5 nM | –
CC[C@@H](C(=O)N1CCC[C@H]1c1nc2cc(-c3ccc(-c4ccc5nc([C@@H]6CCCN6C(=O)[C@H](CC)N(C)C(=O)OC)[nH]c5c4)c4c3OCO4)ccc2[nH]1)N(C)C(=O)OC [Compound 215] | ≤ 5 nM | –
COC(=O)N[C@H](C(=O)N1CCC[C@H]1c1nc2cc(-c3ccc(-c4ccc5nc([C@@H]6CCCN6C(=O)CCCC[C@@H]6SC[C@@H]7NC(=O)N[C@@H]76)[nH]c5c4)cc3)ccc2[nH]1)C(C)C [Compound 216] | ≤ 5 nM | –
COC(=O)N[C@H](C(=O)N1CCCC1c1nc2cc(-c3ccc(-c4ccc(-c5ccc6[nH]c(C7CCCN7C(=O)[C@@H](NC(=O)OC)C(C)C)nc6c5)s4)s3)ccc2[nH]1)C(C)C (stereo partly drawn) [Compound 217] | ≤ 5 nM | –
COCc1cc(-c2ccc3[nH]c([C@@H]4CCCN4C(=O)[C@@H](NC(=O)OC)C(C)C)nc3c2)c(COC)cc1-c1ccc2[nH]c([C@@H]3CCCN3C(=O)[C@@H](NC(=O)OC)C(C)C)nc2c1 [Compound 218] | ≤ 5 nM | –
COC(=O)N[C@H](C(=O)N1CCC[C@H]1c1nc2cc(-c3ccc(-c4ccc5nc([C@@H]6CCCN6C(=O)[C@@H](NC(=O)OC)C(C)(C)O)[nH]c5c4)c4c3OCO4)ccc2[nH]1)C(C)(C)O [Compound 219] | ≤ 5 nM | –
COC(=O)N[C@H](C(=O)N1CCC[C@H]1c1nc2cc(-c3ccc(-c4ccc5nc([C@@H]6CCCN6C(=O)[C@@H](NC(=O)OC)C(C)C)[nH]c5c4)cc3CF)ccc2[nH]1)C(C)C [Compound 220] | ≤ 5 nM | –
COC(=O)N[C@H](C(=O)N1CCC[C@H]1c1nc2cc(-c3ccc(-c4ccc5[nH]c([C@@H]6CCCN6C(=O)[C@@H](NC(=O)OC)C(C)C)nc5c4)c4c3OC(F)(F)O4)ccc2[nH]1)C(C)C [Compound 221] | ≤ 5 nM | –
COC(=O)N[C@H](C(=O)N1C[C@@H](OC)C[C@H]1c1nc2cc(-c3ccc(-c4ccc5[nH]c([C@@H]6C[C@H](OC)CN6C(=O)[C@@H](NC(=O)OC)C(C)C)nc5c4)cc3)ccc2[nH]1)C(C)C [Compound 222] | ≤ 5 nM | –
Cn1c([C@@H]2CCCN2C(=O)OC(C)(C)C)nc2cc(-c3ccc(-c4ccc5c(c4)nc([C@@H]4CCCN4C(=O)OC(C)(C)C)n5C)cc3)ccc21 [Compound 225] | > 5000 nM | –
Cn1c([C@@H]2CCCN2C(=O)OC(C)(C)C)nc2cc(-c3ccc(-c4ccc5[nH]c([C@@H]6CCCN6C(=O)OC(C)(C)C)nc5c4)cc3)ccc21 [Compound 226] | 5 to 5000 nM | –
Cn1c([C@@H]2CCCN2)nc2cc(-c3ccc(-c4ccc5c(c4)nc([C@@H]4CCCN4)n5C)cc3)ccc21 [Compound 227] | > 5000 nM | –
Cn1c([C@@H]2CCCN2)nc2cc(-c3ccc(-c4ccc5[nH]c([C@@H]6CCCN6)nc5c4)cc3)ccc21 [Compound 228] | > 5000 nM | –
COC(=O)N[C@H](C(=O)N1CCC[C@H]1c1nc2ccc(N3CCN(c4ccc5nc([C@@H]6CCCN6C(=O)[C@@H](NC(=O)OC)C(C)C)[nH]c5c4)CC3)cc2[nH]1)C(C)C [Compound 229] | ≤ 5 nM | –
O=C1O[C@@H]2C[C@@H]3C[C@@H]2[C@@H]1[C@H]3C(=O)N1CCC[C@H]1c1nc2cc(-c3ccc(-c4ccc5[nH]c([C@@H]6CCCN6C(=O)[C@H]6[C@H]7C[C@@H]8[C@H]6C(=O)O[C@@H]8C7)nc5c4)cc3)ccc2[nH]1 [Compound 230] | 5 to 5000 nM | –
COC(=O)N[C@H](C(=O)N1CCC[C@H]1c1nc2cc(-c3ccc(-c4ccc5c(c4)nc([C@@H]4CCCN4C(=O)[C@@H](NC(=O)OC)C(C)C)n5C)cc3)ccc2n1C)C(C)C [Compound 231] | > 5000 nM | –
COC(=O)N[C@H](C(=O)N1CCC[C@H]1c1nc2cc(-c3ccc(-c4ccc5c(c4)nc([C@@H]4CCCN4C(=O)[C@@H](NC(=O)OC)C(C)C)n5C)cc3)ccc2[nH]1)C(C)C [Compound 232] | ≤ 5 nM | –
COC(=O)N[C@H](C(=O)N1C[C@@H](C)C[C@H]1c1nc2cc(-c3cc4sc(-c5ccc6[nH]c([C@@H]7C[C@H](C)CN7C(=O)[C@@H](NC(=O)OC)C(C)C)nc6c5)cc4s3)ccc2[nH]1)C(C)C [Compound 233] | ≤ 5 nM | –
COC(=O)N[C@H](C(=O)N1[C@H](c2nc3cc(-c4ccc(-c5ccc6[nH]c([C@@H]7C[C@@H]8C[C@@H]8N7C(=O)[C@@H](NC(=O)OC)C(C)C)nc6c5)cc4)ccc3[nH]2)C[C@@H]2C[C@@H]21)C(C)C [Compound 234] | ≤ 5 nM | –
COC(=O)N[C@H](C(=O)N1CC[C@@H](O)[C@H]1c1nc2ccc(-c3ccc(-c4ccc5nc([C@@H]6[C@H](O)CCN6C(=O)[C@@H](NC(=O)OC)C(C)C)[nH]c5c4)cc3)cc2[nH]1)C(C)C [Compound 235] | ≤ 5 nM | –

Compound | EC50 (Hepatitis C virus, Huh-7, 96 h) | EC50
COC(=O)N[C@H](C(=O)N1CCC[C@H]1c1nc2ccc(-c3coc(-c4ccc5nc([C@@H]6CCCN6C(=O)[C@@H](NC(=O)OC)C(C)C)[nH]c5c4)n3)cc2[nH]1)C(C)C [Compound 236] | ≤ 5 nM | –
COC(=O)N[C@H](C(=O)N1C[C@@H](C)C[C@H]1c1nc2cc(-c3ccc(-c4ccc5[nH]c([C@@H]6C[C@H](C)CN6C(=O)[C@@H](NC(=O)OC)C(C)C)nc5c4)c(C)c3)ccc2[nH]1)C(C)C [Compound 237] | ≤ 5 nM | –
COC(=O)N[C@H](C(=O)N1CCC[C@H]1c1nc2ccc(-c3cn(C)c(-c4ccc5nc([C@@H]6CCCN6C(=O)[C@@H](NC(=O)OC)C(C)C)[nH]c5c4)n3)cc2[nH]1)C(C)C [Compound 238] | 5 to 5000 nM | –
COC(=O)N[C@H](C(=O)N1[C@@H]2C[C@@H]2C[C@H]1c1nc2cc(-c3ccc(-c4ccc5[nH]c([C@@H]6C[C@H]7C[C@H]7N6C(=O)[C@@H](NC(=O)OC)C(C)C)nc5c4)cc3)ccc2[nH]1)C(C)C [Compound 240] | ≤ 5 nM | –
COC(=O)N[C@H](C(=O)N1CCC[C@H]1c1nc2cc(-c3ccc(-c4ccc5[nH]c([C@@H]6CCCN6C(=O)[C@@H](Nc6ncccn6)C(C)C)nc5c4)cc3)ccc2[nH]1)C(C)C [Compound 241] | ≤ 5 nM | –
COC(=O)N[C@H](C(=O)N1C[C@@H](C)C[C@H]1c1nc2cc(-c3ccc(-c4ccc5[nH]c([C@@H]6C[C@H](C)CN6C(=O)[C@@H](NC(=O)OC)C(C)C)nc5c4)c(F)c3)ccc2[nH]1)C(C)C [Compound 242] | ≤ 5 nM | –
COC(=O)N[C@H](C(=O)N1CC2CC2C1c1nc2cc(-c3ccc(-c4ccc5[nH]c(C6C7CC7CN6C(=O)[C@@H](NC(=O)OC)C(C)C)nc5c4)cc3)ccc2[nH]1)C(C)C (stereo partly drawn) [Compound 243] | ≤ 5 nM | –
COC(=O)N[C@H](C(=O)N1CC2CC2C1c1nc2cc(-c3ccc(-c4ccc5[nH]c(C6C7CC7CN6C(=O)[C@@H](NC(=O)OC)C(C)C)nc5c4)cc3)ccc2[nH]1)C(C)C (stereo partly drawn) [Compound 244] | – | ≤ 5 nM
COC(=O)N[C@H](C(=O)N1CC2(CC2)C[C@H]1c1nc2cc(-c3ccc(-c4ccc5[nH]c([C@@H]6CC7(CC7)CN6C(=O)[C@@H](NC(=O)OC)C(C)C)nc5c4)cc3)ccc2[nH]1)C(C)C [Compound 245] | ≤ 5 nM | –
COC(=O)N[C@H](C(=O)N1C[C@@H](C)C[C@H]1c1nc2cc(-c3ccc(-c4ccc5nc([C@@H]6C[C@@H](O)CN6C(=O)[C@H](NC(=O)OC)C(C)C)[nH]c5c4)cc3)ccc2[nH]1)C(C)C [Compound 246] | ≤ 5 nM | –
COC(=O)N(C)[C@H](C(=O)N1C[C@@H](C)C[C@H]1c1nc2cc(-c3ccc(-c4ccc5[nH]c([C@@H]6C[C@H](C)CN6C(=O)[C@H](C(C)C)N(C)C(=O)OC)nc5c4)cc3)ccc2[nH]1)C(C)C [Compound 247] | ≤ 5 nM | –
COC(=O)N[C@H](C(=O)N1C[C@H](C)C[C@H]1c1nc2cc(-c3ccc(-c4ccc5[nH]c([C@@H]6C[C@@H](C)CN6C(=O)[C@@H](NC(=O)OC)C(C)C)nc5c4)cc3)ccc2[nH]1)C(C)C [Compound 248] | ≤ 5 nM | –
COC(=O)N[C@H](C(=O)N1CCC[C@@]1(C)c1nc2cc(-c3ccc(-c4ccc5[nH]c([C@]6(C)CCCN6C(=O)[C@@H](NC(=O)OC)C(C)C)nc5c4)cc3)ccc2[nH]1)C(C)C [Compound 249] | ≤ 5 nM | –
COC(=O)N[C@H](C(=O)N1CCC[C@H]1c1nc2c(F)cc(-c3ccc(-c4cc(F)c5nc([C@@H]6CCCN6C(=O)[C@@H](NC(=O)OC)C(C)C)[nH]c5c4)cc3)cc2[nH]1)C(C)C [Compound 250] | ≤ 5 nM | –
COC(=O)N[C@H](C(=O)N1C[C@@H](C)C[C@H]1c1nc2cc(C#CC#Cc3ccc4[nH]c([C@@H]5C[C@H](C)CN5C(=O)[C@@H](NC(=O)OC)C(C)C)nc4c3)ccc2[nH]1)C(C)C [Compound 251] | ≤ 5 nM | –
COC(=O)N[C@H](C(=O)N1C[C@@H](C)C[C@H]1c1nc2cc(-c3cc(C)c(-c4ccc5[nH]c([C@@H]6C[C@H](C)CN6C(=O)[C@@H](NC(=O)OC)C(C)C)nc5c4)cc3C)ccc2[nH]1)C(C)C [Compound 252] | ≤ 5 nM | –
COC(=O)N[C@H](C(=O)N1C[C@@H](C)C[C@H]1c1nc2cc(-c3ccc(-c4ccc5[nH]c([C@@H]6C[C@H](C)CN6C(=O)[C@H](C(C)C)N(C)C(=O)OC)nc5c4)cc3)ccc2[nH]1)C(C)C [Compound 253] | ≤ 5 nM | –
COC(=O)N[C@H](C(=O)N1CCC[C@H]1c1nc2c(F)cc(-c3ccc(-c4cc(F)c5nc([C@@H]6CCCN6C(=O)[C@@H](NC(=O)OC)C(C)C)[nH]c5c4)c(C)c3)cc2[nH]1)C(C)C [Compound 254] | ≤ 5 nM | –
COC(=O)N[C@H](C(=O)N1CCC[C@H]1c1nc2cc(-c3ccc(-c4ccc5nc([C@@H]6CCCN6C(=O)[C@@H](NC(=O)OC)C(C)C)n(C)c5c4)cc3)ccc2[nH]1)C(C)C [Compound 255] | ≤ 5 nM | –
Cn1c(C2CCCN2C(=O)OC(C)(C)C)nc2ccc(-c3ccc(-c4ccc5[nH]c(C6CCCN6C(=O)OC(C)(C)C)nc5c4)cc3)cc21 (stereo not drawn) [Compound 256] | 5 to 5000 nM | –
Cn1c([C@@H]2CCCN2C(=O)OC(C)(C)C)nc2ccc(-c3ccc(-c4ccc5nc([C@@H]6CCCN6C(=O)OC(C)(C)C)n(C)c5c4)cc3)cc21 [Compound 257] | 5 to 5000 nM | –
